The target of assay [1] is Acidic phospholipase A2 2 (Naja naja) (UniProt P15445). The settings on record: 5.800 mM.
Description: Inhibition of snake venom phospholipase A2 at 5.800 mM assessed as oxygen consumption for 3 mins
Assay [2] has as its target Acidic phospholipase A2 2 (Naja naja, UniProt P15445). The assay is described as follows: Inhibition of snake venom phospholipase A2 assessed as oxygen consumption for 3 mins.
The target in assay [3] is Acidic phospholipase A2 2 (Naja naja) (UniProt P15445). The assay is described as follows: Inhibition of snake venom phospholipase A2 at 3.700 mM assessed as oxygen consumption for 3 mins.
The target is the same in assay [4]. Nature of the assay: Inhibition of snake venom phospholipase A2 at 1 mM assessed as oxygen consumption for 3 mins.

Acidic phospholipase A2 2, sequence (P15445 whole entry): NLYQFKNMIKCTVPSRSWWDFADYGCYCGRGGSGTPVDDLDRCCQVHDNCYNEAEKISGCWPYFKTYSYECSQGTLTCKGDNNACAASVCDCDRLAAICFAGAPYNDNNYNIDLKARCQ
Acidic phospholipase A2 2 (Naja naja), sequence (P15445 whole entry): as above

Turning to `CCN(CC)CCCC(C)Nc1c2ccc(Cl)cc2nc2ccc(OC)cc12` (stereo unspecified) [QUINACRINE], the inhibition in assay [1] worked out at 85.5%. Further, the IC50 in assay [2] is 2160 µM.
`C=C(CC[C@@H](C(=O)O)[C@H]1[C@H](O)C[C@@]2(C)C3=C(CC[C@]12C)[C@@]1(C)CC[C@H](OC(C)=O)C(C)(C)[C@@H]1CC3)C(C)C` [PACHYMIC ACID]: the inhibition in assay [3] was determined as 66%. Also, in assay [2], the IC50 came to 2900 µM.
As to `C=C(CC[C@@H](C(=O)O)[C@H]1[C@H](O)C[C@@]2(C)C3=CC[C@H]4C(C)(C)[C@@H](O)CC[C@]4(C)C3=CC[C@]12C)C(C)C` [DEHYDROTUMULOSIC ACID], the inhibition in assay [4] was determined as 58.6%. Further, the IC50 in assay [2] is 845 µM.

Values taken from ChEMBL document CHEMBL1158290, “Two fungal lanostane derivatives as phospholipase A2 inhibitors” (J Nat Prod, 1996).
